Patent publication US20040254252A1, “Compositions containing a combination of a pharmaceutical agent or a cosmetic agent and an oxy group-bearing aromatic aldehyde and their use in treatments” (priority 2003, published 2004)

What was measured:
[1] = tested on: TPA-induced PGE2 expression in keratinocytes; test: TPA-induced PGE-2 in human skin keratinocytes, ELISA of culture medium; type: cell-based; design: percent inhibition of TPA-induced PGE-2: unit of the concentration uncertain; conditions: TPA 32 nM
Description: Similar in vitro studies as those described in Example 1 were run using human skin keratinocytes. The experimental set up was the same as described for Example 2, but replacing IL-1 with tetradecanoyl phorbol acetate (TPA) at a concentration of 32 nM as the agonist.
Similar in vitro studies as those described in Example 4 were run using human skin keratinocytes. The experimental set up was the same as described for Example 5 but replacing IL-1 with tetradecanoyl phorbol acetate (TPA) at a concentration of 32 nM as the agonist. The compounds tested were 2-ethoxybenzaldehyde (2-EB), and 3-ethoxybenzaldehyde (3-EB) and 4-ethoxybenzaldehyde (4-EB) in concentrations of either 10, 50, or 100 μM.

UV-induced erythema = test: UVB-induced erythema on inner forearm of a volunteer, topical lotion; type: in vivo, human; conditions: next day, 14 hours post-irradiation
Description: This lotion was then tested to determine if it could prevent an inflammatory response when applied topically to human skin. For this study a lab volunteer was irradiated on a quarter sized spot on the inner forearm with 60-80 mJ of UVB light (a sunlamp). This dose was sufficient to cause a highly visible red erythema response. Immediately following irradiation on both arms, one arm was treated with the above 4-EB lotion while the other arm was treated with the same lotion formulation but with no 4-EB.

[2] = Franz cell percutaneous absorption analysis; type: in vitro ADME, human; conditions: from lotion formulation with 1.0% 4-ethoxybenzaldehyde; 24 hour period
Description: This lotion was then tested by Franz cell percutaneous absorption analysis to determine how much 4-EB could penetrate human skin over a 24 hour period. The lotion formulation above provided a flux rate of 4-EB through human skin of 30-50 micrograms/hour.

IL-1 induction of PGE-2 = IL-1 induction of PGE-2 in human skin fibroblasts, ELISA of culture medium; type: cell-based
Description: For this experiment, human skin fibroblasts were seeded into 12 well culture dishes at a density of 80,000 cells/wells in tissue culture medium and left overnight to attach to the dish. The next day, medium was removed and replaced with fresh medium containing either 1% ethanol as a diluent control, IL-1 at a concentration of 500 picograms/ml, or IL-1 plus 4-EB at either 250 μM or 500 μM. Cells were incubated for an additional 24 hours and at this time, the medium was removed and assayed by ELISA for the presence of PGE-2 in the culture medium. […] The percent inhibitions are as follows: 4-EB, 100%, 6% and 10% at 50 μM, 10 μM and 1 μM.
Subsequent studies were carried out to determine the dose-response of human skin fibroblasts to 4-EB. […] The results of the study are provided graphically in FIG. 3A.
For this experiment, human skin fibroblasts were seeded into 12 well culture dishes at a density of 80,000 cells/wells in tissue culture medium and left overnight to attach to the dish. The next day, medium was removed and replaced with fresh medium containing either 1% ethanol as a diluent control, IL-1 at a concentration of 500 picograms/ml, or IL-1 plus one of the compounds under investigation at a concentration of 1, 10, 50 or 100 μM. Cells were incubated for an additional 24 hours and at this time, the medium was removed and assayed by ELISA for the presence of PGE-2 in the culture medium.

CCOc1ccc(C=O)cc1 [4-EB, 4-ethoxybenzaldehyde]
percent inhibition of TPA-induced PGE-2 ([1]; 50 μM): 79.9% | percent inhibition of TPA-induced PGE-2 ([1]; 1001 (unit uncertain)): 94.9% | inhibition at 50 µM ([1]; Homo sapiens, Keratinocyte, 50 μM, read-out: percent inhibition of TPA-induced PGE-2): 79.9% | inhibition at 100 µM ([1]; Homo sapiens, Keratinocyte, 100 μM, read-out: percent inhibition of TPA-induced PGE-2): 94.9% | redness of the treated spot (UV-induced erythema): no redness | flux rate of 4-EB through human skin [2]: 30-50 micrograms/hour | percent inhibition of IL-1 induced PGE-2 (IL-1 induction of PGE-2; 50 μM, IL-1 500 picograms/ml, 24 hours): 82% | block of the IL-1 induction of PGE-2 (in words) (IL-1 induction of PGE-2; 100 μM, dose-response study): completely blocked | inhibition of the IL-1 induction of PGE-2 (IL-1 induction of PGE-2; 250 μM, IL-1 500 picograms/ml, 24 hours): complete inhibition | inhibition of the IL-1 induction of PGE-2 (IL-1 induction of PGE-2; 500 μM, IL-1 500 picograms/ml, 24 hours): complete inhibition

COc1ccc(C=O)cc1 [4-MB, 4-methoxybenzaldehyde]
inhibition of the IL-1 induced production of PGE-2 (in words) (IL-1 induction of PGE-2; 50 μM): did not appear to inhibit
